Measured values from ChEMBL document CHEMBL1201862, “PubChem BioAssay data set” (2004).
The source made the active and inactive calls.

Tests used:
Tumor necrosis factor = Tumor necrosis factor (Homo sapiens, UniProt P01375); assay: TNFa-triggered NF-kB activation inhibitors, SAR follow-up, cell-based, revised (AID 2337); type: functional
[1] = biological target: T1, Nucleotide-binding oligomerization domain-containing protein 1 (Homo sapiens, UniProt Q9Y239); assay: NOD1 signaling inhibitors, SAR follow-up, revised (AID 2333); type: functional
T1 sequence (Q9Y239 whole entry): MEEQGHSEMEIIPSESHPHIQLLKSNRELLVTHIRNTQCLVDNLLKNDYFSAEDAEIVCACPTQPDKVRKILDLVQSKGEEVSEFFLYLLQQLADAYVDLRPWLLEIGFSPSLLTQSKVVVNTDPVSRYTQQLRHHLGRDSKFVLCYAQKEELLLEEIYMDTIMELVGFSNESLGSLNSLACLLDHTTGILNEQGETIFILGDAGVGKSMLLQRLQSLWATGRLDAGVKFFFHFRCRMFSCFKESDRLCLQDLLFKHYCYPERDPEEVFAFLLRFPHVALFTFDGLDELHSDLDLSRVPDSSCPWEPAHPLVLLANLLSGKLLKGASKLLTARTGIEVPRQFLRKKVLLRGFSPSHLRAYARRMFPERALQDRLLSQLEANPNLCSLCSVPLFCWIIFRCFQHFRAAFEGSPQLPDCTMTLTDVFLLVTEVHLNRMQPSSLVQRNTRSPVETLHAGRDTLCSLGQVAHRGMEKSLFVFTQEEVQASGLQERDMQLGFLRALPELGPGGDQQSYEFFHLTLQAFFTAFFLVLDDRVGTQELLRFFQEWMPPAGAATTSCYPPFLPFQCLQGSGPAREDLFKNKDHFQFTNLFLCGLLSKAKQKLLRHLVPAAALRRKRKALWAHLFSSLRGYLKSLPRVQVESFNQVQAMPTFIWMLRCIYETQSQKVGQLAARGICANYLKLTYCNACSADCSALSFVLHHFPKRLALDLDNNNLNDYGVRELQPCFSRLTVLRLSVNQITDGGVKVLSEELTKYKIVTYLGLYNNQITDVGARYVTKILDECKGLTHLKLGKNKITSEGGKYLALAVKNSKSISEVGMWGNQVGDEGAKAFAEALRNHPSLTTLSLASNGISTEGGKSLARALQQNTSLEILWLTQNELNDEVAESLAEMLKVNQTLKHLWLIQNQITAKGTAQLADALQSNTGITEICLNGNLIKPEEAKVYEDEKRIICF

HEK293 [2] = assay: cells; conditions: Homo sapiens
HEK293 [3] = assay: NOD2 signaling inhibitors in MDP-stimulated cells, cell-based, uHTS, luminescence (AID 2001); type: functional; conditions: Homo sapiens
HEK293 [4] = assay: cells; type: functional, cell-based; conditions: Homo sapiens
[5] = biological target: T2, COUP transcription factor 2 (Homo sapiens, UniProt P24468); assay: Luminescence-based cell-based high throughput dose response assay to identify inhibitors of COUP-TFII (NR2F2).; type: functional;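 further: HEK293 cells transiently cotransfected with COUP-TFII expression vector and reporter; luciferase reporter luminescence driven by COUP-TFII from the pX2-168 reporter plasmid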
T2 sequence (P24468 whole entry): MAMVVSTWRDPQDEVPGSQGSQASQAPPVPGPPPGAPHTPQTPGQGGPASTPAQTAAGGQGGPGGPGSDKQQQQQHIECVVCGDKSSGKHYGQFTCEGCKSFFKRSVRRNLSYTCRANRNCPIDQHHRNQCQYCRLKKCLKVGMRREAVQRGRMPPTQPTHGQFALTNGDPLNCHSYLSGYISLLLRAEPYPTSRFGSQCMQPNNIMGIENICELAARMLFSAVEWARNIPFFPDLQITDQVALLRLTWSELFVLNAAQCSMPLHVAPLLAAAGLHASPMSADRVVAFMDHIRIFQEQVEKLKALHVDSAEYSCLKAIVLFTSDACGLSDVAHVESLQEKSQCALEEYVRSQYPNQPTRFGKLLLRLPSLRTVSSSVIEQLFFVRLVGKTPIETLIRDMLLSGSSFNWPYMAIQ

HEK293 [6] = assay: NOD1 signaling inhibitors, primary screen, cell-based, luminescence, uHTS (AID 1578); type: functional; conditions: Homo sapiens
[7] = cytotoxicity in HEK-293T cells, dose response, cytotoxicity control for BCR NF-kB inhibitor project, luminescence, B-cell screen hits (AID 489021); type: functional, cell-based;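 further: HEK-293T cells carrying an NF-kB luciferase reporter; cells exposed to compound for about 14 hours before viability readout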
INS1 = assay: beta cell apoptosis inhibitors, cytokine rescue, dose response, luminescence, retest (AID 449756); type: functional, cell-based; conditions: Rattus norvegicus;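 further: cell death triggered by IL-1 beta plus TNF-alpha plus IFN-gamma mixture; protective hits raise ATP signal compared with cytokine alone wells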
HEK293 [8] = assay: cells; type: functional, cell-based; conditions: Homo sapiens; remark: listed apart in the source
CAAX prenyl protease 2 [9] = biological target: T3, CAAX prenyl protease 2 (Saccharomyces cerevisiae S288c, UniProt Q03530); type: biochemical
T3 sequence (Q03530 whole entry): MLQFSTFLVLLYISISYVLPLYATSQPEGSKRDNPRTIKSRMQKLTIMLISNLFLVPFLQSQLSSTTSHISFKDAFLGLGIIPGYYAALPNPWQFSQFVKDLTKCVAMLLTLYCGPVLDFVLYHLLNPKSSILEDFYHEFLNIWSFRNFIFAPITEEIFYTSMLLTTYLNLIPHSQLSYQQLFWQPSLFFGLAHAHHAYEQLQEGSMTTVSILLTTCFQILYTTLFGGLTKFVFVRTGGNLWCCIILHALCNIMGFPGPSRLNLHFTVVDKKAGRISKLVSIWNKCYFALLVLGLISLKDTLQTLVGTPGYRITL

Troponin, cardiac muscle = Troponin, cardiac muscle (Homo sapiens, UniProt P19429+P45379+P63316); assay: Fluorescence-based biochemical high throughput dose response assay for activators of the calcium sensitivity of cardiac Regulated Thin Filaments (RTF). [Related pubchem assays (depositor defined):AID493008, AID493018, AID504382, AID504383]; type: protein-complex assay
CAAX prenyl protease 2 [10] = biological target: T4, CAAX prenyl protease 2 (Homo sapiens, UniProt Q9Y256); assay: human Rce1 protease inhibitors, dose response, biochemical, yeast membranes, quenched-peptide fluorescence, cherry-pick (AID 588849)
T4 sequence (Q9Y256 whole entry): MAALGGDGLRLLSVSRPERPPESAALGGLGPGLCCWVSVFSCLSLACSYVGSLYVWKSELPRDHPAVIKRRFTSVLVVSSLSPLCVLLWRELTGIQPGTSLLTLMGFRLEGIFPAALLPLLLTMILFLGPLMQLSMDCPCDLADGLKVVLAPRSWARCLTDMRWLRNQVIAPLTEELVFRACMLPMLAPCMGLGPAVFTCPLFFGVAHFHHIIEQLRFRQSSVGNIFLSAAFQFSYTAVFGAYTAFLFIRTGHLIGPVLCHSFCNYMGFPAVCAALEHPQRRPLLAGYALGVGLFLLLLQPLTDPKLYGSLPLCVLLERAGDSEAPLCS

Streptococcus = assay: Group A Streptococcus viability loss, dose response, counter-screen for streptokinase expression inhibitor project, luminescence, BacTiterGlo (AID 1915); type: functional, organism-based;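 further: potency for reduction of bacterial viability or growth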
Streptokinase A = biological target: T5, Streptokinase A (Streptococcus pyogenes serotype M1, UniProt P10520); assay: S. pyogenes streptokinase expression inhibitors, potency, dose response, plasminogen activation absorbance, OD405 (AID 1914); type: functional, Streptococcus pyogenes M1 GAS;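 further: secreted streptokinase activity via plasminogen activation per viability signal from cell pellet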
T5 sequence (P10520 whole entry): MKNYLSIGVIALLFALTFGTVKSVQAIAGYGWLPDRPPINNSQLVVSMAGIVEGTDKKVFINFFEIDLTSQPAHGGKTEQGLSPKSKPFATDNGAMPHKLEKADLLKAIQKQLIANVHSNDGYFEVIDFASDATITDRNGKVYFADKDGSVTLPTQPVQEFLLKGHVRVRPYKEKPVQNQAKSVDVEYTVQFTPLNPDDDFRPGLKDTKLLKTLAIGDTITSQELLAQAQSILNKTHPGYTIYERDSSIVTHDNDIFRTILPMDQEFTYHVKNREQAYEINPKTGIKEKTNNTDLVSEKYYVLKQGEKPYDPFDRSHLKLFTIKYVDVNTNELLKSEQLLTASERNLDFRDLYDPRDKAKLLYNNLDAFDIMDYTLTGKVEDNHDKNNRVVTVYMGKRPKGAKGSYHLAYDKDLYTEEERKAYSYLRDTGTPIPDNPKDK

[11] = system: Streptococcus sp. 'group A'; assay: growth inhibition of control SK(-) GAS strain, dose response, counter-screen for streptokinase expression inhibitor project, luminescence, kanamycin, BacTiterGlo, confirmation (AID 1900); type: functional, organism-based
Protein RecA = biological target: T6, Protein RecA (Mycobacterium tuberculosis, UniProt P9WHJ3); assay: Fluorescence Cell-Free Homogeneous Dose Retest to Identify Inhibitors of RecA-Intein Splicing Activity. [Related pubchem assays (depositor defined):AID2097, AID2223, AID489010, AID492950]; type: functional
T6 sequence (P9WHJ3 whole entry): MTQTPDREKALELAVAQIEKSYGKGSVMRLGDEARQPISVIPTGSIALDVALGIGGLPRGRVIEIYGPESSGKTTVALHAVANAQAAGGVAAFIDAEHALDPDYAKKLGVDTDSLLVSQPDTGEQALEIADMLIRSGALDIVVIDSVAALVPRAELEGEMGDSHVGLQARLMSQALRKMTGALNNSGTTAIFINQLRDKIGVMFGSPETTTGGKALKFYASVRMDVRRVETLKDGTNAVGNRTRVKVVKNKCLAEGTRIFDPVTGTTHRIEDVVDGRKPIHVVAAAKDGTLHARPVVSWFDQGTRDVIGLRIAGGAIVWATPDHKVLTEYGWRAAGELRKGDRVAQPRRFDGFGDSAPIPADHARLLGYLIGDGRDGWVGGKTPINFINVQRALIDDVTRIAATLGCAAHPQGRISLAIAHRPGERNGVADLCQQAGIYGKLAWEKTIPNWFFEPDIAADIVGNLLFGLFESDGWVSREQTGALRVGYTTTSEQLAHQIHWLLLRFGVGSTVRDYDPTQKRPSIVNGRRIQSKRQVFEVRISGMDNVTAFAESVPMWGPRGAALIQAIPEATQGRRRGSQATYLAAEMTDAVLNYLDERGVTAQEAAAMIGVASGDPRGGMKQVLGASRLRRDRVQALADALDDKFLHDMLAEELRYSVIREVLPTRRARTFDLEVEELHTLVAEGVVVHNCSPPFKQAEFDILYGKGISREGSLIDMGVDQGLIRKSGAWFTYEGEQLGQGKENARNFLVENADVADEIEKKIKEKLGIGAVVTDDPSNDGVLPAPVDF

[12] = biological target: T7, Replicative DNA helicase DnaB (Mycobacterium tuberculosis, UniProt P9WMR3); assay: DnaB intein splicing inhibitors, dose response, biochemical, cell-free fluorescence (AID 449749); type: functional
T7 sequence (P9WMR3 whole entry): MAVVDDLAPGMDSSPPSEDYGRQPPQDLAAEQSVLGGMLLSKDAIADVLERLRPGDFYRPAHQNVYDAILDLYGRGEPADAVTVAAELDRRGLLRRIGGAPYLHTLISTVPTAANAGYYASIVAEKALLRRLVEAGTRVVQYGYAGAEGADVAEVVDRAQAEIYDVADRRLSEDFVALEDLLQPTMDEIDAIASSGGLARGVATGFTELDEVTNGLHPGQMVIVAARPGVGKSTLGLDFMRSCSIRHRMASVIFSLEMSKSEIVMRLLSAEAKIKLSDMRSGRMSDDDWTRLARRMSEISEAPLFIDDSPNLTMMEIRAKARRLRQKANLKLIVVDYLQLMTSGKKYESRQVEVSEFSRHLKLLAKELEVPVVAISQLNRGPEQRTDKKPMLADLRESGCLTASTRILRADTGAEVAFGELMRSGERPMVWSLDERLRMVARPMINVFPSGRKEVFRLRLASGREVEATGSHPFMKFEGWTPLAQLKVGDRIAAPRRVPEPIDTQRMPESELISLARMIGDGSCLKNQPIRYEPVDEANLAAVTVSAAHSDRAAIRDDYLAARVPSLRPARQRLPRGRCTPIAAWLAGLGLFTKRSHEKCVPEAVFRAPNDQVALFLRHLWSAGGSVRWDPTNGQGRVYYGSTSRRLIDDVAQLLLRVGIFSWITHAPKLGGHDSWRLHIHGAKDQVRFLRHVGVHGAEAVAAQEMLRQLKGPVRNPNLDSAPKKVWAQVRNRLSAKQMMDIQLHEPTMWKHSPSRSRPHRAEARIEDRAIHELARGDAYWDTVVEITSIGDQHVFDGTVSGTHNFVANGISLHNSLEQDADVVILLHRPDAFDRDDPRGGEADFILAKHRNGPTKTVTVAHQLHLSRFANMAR

HEK293 [13] = assay: inhibitors of LMP1-driven NF-kB reporter, dose response, cell-based, HEK293, luciferase, cherry-pick (AID 588343); type: functional; conditions: Homo sapiens

## COc1ccc(-c2nc(CN3CCN(c4ncnc5ccccc45)CC3)c(C)o2)cc1
Tumor necrosis factor
  IC50: 4.08 µM (active)
[1]
  IC50: 3.13 µM (active)
HEK293 [2]
  IC50: 11.9 µM (active)

## COc1ccc(NS(=O)(=O)c2ccc(-c3coc(C)n3)cc2)cc1OC
HEK293 [3]
  IC50: 6.82 µM (active)
HEK293 [4]
  IC50: 4.75 µM (active)
[5]
  IC50: 5.85 µM (active)
HEK293 [6]
  EC50: 1.1 µM (active)
[7]
  IC50: > 80 µM (inactive)
INS1
  AC50: 2.88 µM (active)
HEK293 [8]
  IC50: > 20 µM (inactive)

## COc1ccc(-n2nc(C(=O)NCC(=O)N3CCC(C)CC3)c3ccccc3c2=O)cc1
CAAX prenyl protease 2 [9]
  AC50: 3.87 µM (active)

## CCC(=O)N1c2ccc(S(=O)(=O)N3CCN(c4ccc(C(C)=O)cc4)CC3)cc2CC1C (configuration not stated)
Tumor necrosis factor
  IC50: 1.63 µM (active)
[1]
  IC50: 2 µM (active)
HEK293 [2]
  IC50: 14.7 µM (active)

## Cc1ccc(C)c(C(=O)CSc2nnc(C(C)C)[nH]2)c1
Troponin, cardiac muscle
  EC50: > 71.5 µM (inactive)

## C=C(C)CSc1nc2sc3c(c2c(=O)n1-c1ccc(OC)cc1)CCN(C)C3
CAAX prenyl protease 2 [9]
  AC50: 3.45 µM (active)

## Cc1cccn2c(=O)c(/C=C3\SC(=S)N(CC(C)C)C3=O)c(NCCCOC(C)C)nc12
Troponin, cardiac muscle
  EC50: 0.287 µM (active)

## Cn1cnnc1Sc1nc2ccccc2nc1NS(=O)(=O)c1ccccc1
Troponin, cardiac muscle
  EC50: > 71.5 µM (inactive)

## CCOc1ccc(-c2nc(CCl)cs2)cc1OC
CAAX prenyl protease 2 [10]
  AC50: > 100 µM (inactive)

## CS(=O)(=O)Cc1ccc(C(=O)N(CCc2ccccc2)Cc2ccccc2)cc1
CAAX prenyl protease 2 [10]
  AC50: 35.8 µM (active)

## COc1ccc(-c2oc3ncn(Cc4ccco4)c(=N)c3c2-c2ccc(OC)cc2)cc1
CAAX prenyl protease 2 [10]
  AC50: 79.2 µM (active)
Streptococcus
  EC50: > 150 µM (not active)
Streptokinase A
  EC50: 14.8 µM (active)
[11]
  EC50: 6.01 µM (active)

## Cc1cc(C)n(-c2ccc(NN=C(C#N)C#N)cc2)n1
Protein RecA
  EC50: 9.25 µM (active)
[12]
  AC50: 5.45 µM (active)
HEK293 [13]
  AC50: 1.82 µM (active)
